Measured values taken from ChEMBL document CHEMBL1134914, “Acyl dipeptides as reversible caspase inhibitors. Part 1: initial lead optimization” (Bioorg Med Chem Lett, 2002).

Columns and labels:
Caspase-7 = molecular target: T1, Caspase-7 (Homo sapiens, UniProt P55210); experiment: Inhibitory concentration against caspase-7
T1 sequence (P55210 whole entry): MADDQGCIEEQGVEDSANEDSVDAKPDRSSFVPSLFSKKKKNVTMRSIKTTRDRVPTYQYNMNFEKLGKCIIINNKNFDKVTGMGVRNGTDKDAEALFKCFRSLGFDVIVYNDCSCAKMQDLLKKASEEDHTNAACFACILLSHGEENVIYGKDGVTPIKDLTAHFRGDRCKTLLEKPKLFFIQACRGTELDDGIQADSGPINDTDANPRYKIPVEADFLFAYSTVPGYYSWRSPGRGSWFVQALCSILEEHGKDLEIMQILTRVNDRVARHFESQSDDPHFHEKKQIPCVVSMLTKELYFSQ

Caspase-6 = molecular target: T2, Caspase-6 (Homo sapiens, UniProt P55212); experiment: Inhibitory concentration required against caspase-6
T2 sequence (P55212 whole entry): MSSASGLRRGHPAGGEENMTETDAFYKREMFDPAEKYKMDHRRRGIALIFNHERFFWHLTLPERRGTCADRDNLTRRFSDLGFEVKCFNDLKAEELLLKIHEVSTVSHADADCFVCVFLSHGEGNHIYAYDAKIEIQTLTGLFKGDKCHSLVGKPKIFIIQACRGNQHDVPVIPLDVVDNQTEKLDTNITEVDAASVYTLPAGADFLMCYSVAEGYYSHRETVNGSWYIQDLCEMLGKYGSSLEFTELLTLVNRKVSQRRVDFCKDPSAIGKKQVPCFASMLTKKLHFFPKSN

Caspase-8 = Caspase-8 (Homo sapiens, UniProt Q14790); experiment: Inhibitory concentration against caspase-8
Caspase-3 = molecular target: T3, Caspase-3 (Homo sapiens, UniProt P42574); experiment: Inhibitory concentration against caspase-3
T3 sequence (P42574 whole entry): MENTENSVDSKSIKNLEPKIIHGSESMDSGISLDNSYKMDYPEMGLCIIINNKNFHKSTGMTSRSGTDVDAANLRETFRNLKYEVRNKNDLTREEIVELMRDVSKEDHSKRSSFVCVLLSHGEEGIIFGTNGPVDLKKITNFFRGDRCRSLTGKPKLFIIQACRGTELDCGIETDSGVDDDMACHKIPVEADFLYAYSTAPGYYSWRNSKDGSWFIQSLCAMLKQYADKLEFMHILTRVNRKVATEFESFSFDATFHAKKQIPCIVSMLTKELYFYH

Caspase-1 (Mus musculus) = Caspase-1 (Mus musculus) (UniProt P29452)
Chain of Caspase-1 (Mus musculus) (P29452 whole entry, looked up): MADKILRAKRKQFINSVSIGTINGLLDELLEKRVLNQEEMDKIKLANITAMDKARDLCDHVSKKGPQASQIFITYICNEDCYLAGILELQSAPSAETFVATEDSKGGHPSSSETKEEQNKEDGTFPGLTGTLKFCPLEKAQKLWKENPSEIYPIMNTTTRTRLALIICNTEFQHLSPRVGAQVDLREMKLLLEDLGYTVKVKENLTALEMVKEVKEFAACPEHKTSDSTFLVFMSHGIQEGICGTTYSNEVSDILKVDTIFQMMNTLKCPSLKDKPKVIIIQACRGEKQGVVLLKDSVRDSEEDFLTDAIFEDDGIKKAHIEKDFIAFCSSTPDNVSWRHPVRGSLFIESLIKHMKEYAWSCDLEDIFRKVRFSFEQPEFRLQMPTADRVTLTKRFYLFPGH

Chain of Caspase-8 (Q14790 217-374 limits assumed): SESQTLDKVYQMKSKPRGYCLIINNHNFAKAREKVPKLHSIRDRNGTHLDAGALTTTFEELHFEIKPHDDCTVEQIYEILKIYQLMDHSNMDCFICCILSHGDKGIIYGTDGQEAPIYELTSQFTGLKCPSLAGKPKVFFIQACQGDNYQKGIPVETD
Chain of Caspase-8 (Q14790 385-479 limits assumed): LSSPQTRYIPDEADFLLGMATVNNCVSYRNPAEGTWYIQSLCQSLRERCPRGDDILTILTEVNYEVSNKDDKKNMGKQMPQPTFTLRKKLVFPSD

Row | SMILES | IC50 (Caspase-7) [µM] | IC50 (Caspase-6) [µM] | IC50 (Caspase-8) [µM] | IC50 (Caspase-3) [µM] | IC50 (Caspase-1 (Mus musculus)) [µM]
1 | CC(C)C[C@H](NC(=O)C(C)Oc1cccc2ccccc12)C(=O)N[C@H]1CC(=O)OC1O (stereo partly drawn) | 1.32 | 1.28 | 2.43 | 0.376 | 
2 | CC(C)C[C@H](NC(=O)COc1cccc2ccccc12)C(=O)N[C@H]1CC(=O)OC1O (stereo partly drawn) | 1.81 | 0.94 | 0.77 | 0.135 | 
3 | CC(C)C[C@H](NC(=O)COc1cccc2cccnc12)C(=O)N[C@H]1CC(=O)OC1O (stereo partly drawn) | 1.51 | 12.5 | 2.24 | 0.147 | 13.7
4 | CC(C)C[C@H](NC(=O)CCSc1ccc2ccccc2c1)C(=O)N[C@H]1CC(=O)OC1O (stereo partly drawn) | 5.89 | 1.62 | 15 | 0.837 | 0.611
5 | CC(C)C[C@H](NC(=O)COc1ccccc1C1CCCC1)C(=O)N[C@H]1CC(=O)OC1O (stereo partly drawn) | 1.49 | 3.37 | 1.86 | 0.197 | 0.538
6 | CC(C)C[C@H](NC(=O)COc1ccccc1-c1ccccc1)C(=O)N[C@H]1CC(=O)OC1O (stereo partly drawn) | 2.02 | 0.717 | 1.71 | 0.095 | 0.636
7 | CC(C)C[C@H](NC(=O)CCc1cccc2ccccc12)C(=O)N[C@H]1CC(=O)OC1O (stereo partly drawn) | 8.77 | 4.18 | 12.2 | 1.59 | 1.86
8 | CC(C)C[C@H](NC(=O)COc1ccc2c(c1)CCCC2)C(=O)N[C@H]1CC(=O)OC1O (stereo partly drawn) | 2.31 | 28.6 | 4.95 | 0.162 | 2.57
9 | CC(C)C[C@H](NC(=O)COc1cccc2ncccc12)C(=O)N[C@H]1CC(=O)OC1O (stereo partly drawn) | 3.85 | > 50 | 4.02 | 0.412 | 5.25
10 | CC(C)C[C@H](NC(=O)CCOc1ccccc1)C(=O)N[C@H]1CC(=O)OC1O (stereo partly drawn) | 6.04 | > 50 | > 10 | 0.419 | 9.42
11 | CC(C)C[C@H](NC(=O)COc1ccnc2ccccc12)C(=O)N[C@H]1CC(=O)OC1O (stereo partly drawn) | 4.57 | > 50 | > 50 | 0.232 | 35.3
12 | Cc1ccc2ccccc2c1OCC(=O)N[C@@H](CC(C)C)C(=O)N[C@H]1CC(=O)OC1O (stereo partly drawn) | 4.16 | 32.4 | 4.14 | 0.375 | 0.843
13 | CC(C)C[C@H](NC(=O)CCSc1cccc2ccccc12)C(=O)N[C@H]1CC(=O)OC1O (stereo partly drawn) | 3.6 | 2.72 | 16.3 | 0.412 | 0.563
14 | CC(C)C[C@H](NC(=O)COc1ccc(OCc2ccccc2)cc1)C(=O)N[C@H]1CC(=O)OC1O (stereo partly drawn) | 7.25 | 33.4 | 8.6 | 0.57 | 2.51
15 | CC(C)C[C@H](NC(=O)COc1ccc(Cc2ccccc2)cc1)C(=O)N[C@H]1CC(=O)OC1O (stereo partly drawn) | 4.41 | 18.9 | 4.72 | 0.346 | 1.8
16 | CC(C)C[C@H](NC(=O)COc1cccc(-c2ccccc2)c1)C(=O)N[C@H]1CC(=O)OC1O (stereo partly drawn) | 3.75 | 14.5 | 3.86 | 0.311 | 1.1
17 | CC(C)C[C@H](NC(=O)/C=C/c1ccccc1)C(=O)N[C@H]1CC(=O)OC1O (stereo partly drawn) | 9.72 | 5.05 | 13.4 | 1.39 | 0.65
18 | CC(C)C[C@H](NC(=O)COc1nccc2ccccc12)C(=O)N[C@H]1CC(=O)OC1O (stereo partly drawn) | 34.7 | > 50 | > 50 | 1.57 | 44.2

Row | SMILES | IC50 (Caspase-7) [µM] | IC50 (Caspase-6) [µM] | IC50 (Caspase-8) [µM] | IC50 (Caspase-3) [µM] | IC50 (Caspase-1 (Mus musculus)) [µM]
19 | CC(C)C[C@H](NC(=O)COc1cccc2c1CCCC2)C(=O)N[C@H]1CC(=O)OC1O (stereo partly drawn) | 2.74 | 11.8 | 1.75 | 0.324 | 1.81
20 | CC(C)C[C@H](NC(=O)CC(=O)c1ccc2ccccc2c1)C(=O)N[C@H]1CC(=O)OC1O (stereo partly drawn) | 7.43 | 10.3 | 5.23 | 1.42 | 0.543
21 | CC(C)C[C@H](NC(=O)c1cccc2ccccc12)C(=O)N[C@H]1CC(=O)OC1O (stereo partly drawn) | > 10 | > 10 | > 10 | > 10 | 
22 | COc1ccc(OCC(=O)N[C@@H](CC(C)C)C(=O)N[C@H]2CC(=O)OC2O)c2ccccc12 (stereo partly drawn) | 4.08 | 22.6 | 1.45 | 0.263 | 0.831
23 | CC(C)C[C@H](NC(=O)Cc1cccc2ccccc12)C(=O)N[C@H]1CC(=O)OC1O (stereo partly drawn) | 7.27 |  |  | 0.853 | 3.24
24 | CC(C)C[C@H](NC(=O)CCOc1ccc2ccccc2c1)C(=O)N[C@H]1CC(=O)OC1O (stereo partly drawn) | 9.65 | 5.9 | 15.2 | 0.91 | 1.32
25 | CC(C)C[C@H](NC(=O)COc1ccccc1)C(=O)N[C@H]1CC(=O)OC1O (stereo partly drawn) | > 10 | > 50 | > 10 | 3.4 | > 10
26 | CC(C)C[C@H](NC(=O)COc1ccc(C2CCCC2)cc1)C(=O)N[C@H]1CC(=O)OC1O (stereo partly drawn) | 5.23 | 51.2 | 5.9 | 0.319 | 2.2
27 | CC(C)C[C@H](NC(=O)COc1ccc(C23CC4CC(CC(C4)C2)C3)cc1)C(=O)N[C@H]1CC(=O)OC1O (stereo partly drawn) | 8.24 | 32.5 | 4.35 | 0.528 | 1.83
28 | CC(C)C[C@H](NC(=O)C(C)Oc1cccc2cc(Br)ccc12)C(=O)N[C@H]1CC(=O)OC1O (stereo partly drawn) | 32.4 | 13.8 | 29.1 | 4.81 | 
29 | Cc1ccc(OCC(=O)N[C@@H](CC(C)C)C(=O)N[C@H]2CC(=O)OC2O)c(C23CC4CC(CC(C4)C2)C3)c1 (stereo partly drawn) | 2.79 | 5.86 | 3.87 | 0.474 | 1.43
30 | CC(C)C[C@H](NC(=O)COc1ccc(Cl)c2ccccc12)C(=O)N[C@H]1CC(=O)OC1O (stereo partly drawn) | 3.38 | 12 | 1.69 | 0.231 | 0.429
31 | CC(C)C[C@H](NC(=O)COc1cccc2cnccc12)C(=O)N[C@H]1CC(=O)OC1O (stereo partly drawn) | 3.48 | 42.7 | 3.64 | 0.407 | 5.14
32 | CC(C)C[C@H](NC(=O)CSc1cccc2ccccc12)C(=O)N[C@H]1CC(=O)OC1O (stereo partly drawn) | 1.74 | 1.43 | 7.42 | 0.195 | 2.75
33 | CC(C)C[C@H](NC(=O)COc1ccc(Oc2ccccc2)cc1)C(=O)N[C@H]1CC(=O)OC1O (stereo partly drawn) | 6.82 | 21.2 | 9.28 | 0.545 | 2.21
34 | CC(C)C[C@H](NC(=O)Cc1ccc2ccccc2c1)C(=O)N[C@H]1CC(=O)OC1O (stereo partly drawn) | > 10 | 11.1 | 12.7 | 0.849 | 3.14
35 | CC(C)C[C@H](NC(=O)CCOc1cccc2ccccc12)C(=O)N[C@H]1CC(=O)OC1O (stereo partly drawn) | 1.37 | 0.305 | 9.81 | 0.059 | 
